According to patent US20210115044A1, “TRICYCLIC HETEROCYCLE COMPOUNDS USEFUL AS HIV INTEGRASE INHIBITORS” (Merck Sharp & Dohme Corp., priority 2018, published 2021):
Where two headings read alike, the source gives them in different places.

Tested on: HIV-1 (H9/IIIB strain)
Assay: Multiple round HIV-1 infection assay in MT4-GFP cells (wild type cell assay, Viking)
Assay type: cell-based
Conditions: MT4-GFP cells infected with HIV-1 H9/IIIB, inhibition of reproductive ratio R0, ~48 h and ~72 h post-infection
Method: The antiviral activity of the Examples herein was assessed in an assay that measures the rate of replication of HIV in cell culture, and performed according to the following procedure. HIV-1 replication was monitored using MT4-gag-GFP clone D3 (hereafter designated MT4-GFP), which are MT-4 cells modified to harbor a GFP reporter gene, the expression of which is dependent on the HIV-1 expressed proteins tat and rev. Productive infection of an MT4-GFP cell with HIV-1 results in GFP expression approximately 24 h post-infection. MT4-GFP cells were maintained at 37° C./5% CO2/90% relative humidity in RPMI 1640 supplemented with 10% fetal bovine serum, 100 U/ml penicillin/streptomycin, and 400 μg/ml G418 to maintain the reporter gene. For infections, MT4-GFP cells were placed in the same medium lacking G418 and infected overnight with HIV-1 (H9/IIIB strain) virus at an approximate multiplicity of infection of 0.01 in the same incubation conditions. Cells were then washed and re-suspended in either RPMI 1640 at 2×10^5 cells/mL (0% NHS condition) or 100% normal human serum (NHS) at 2×10^5 cells/mL (100% NHS condition). Compound plates were prepared by dispensing compounds dissolved in DMSO into wells of 384 well poly-D-lysine-coated plates (0.2 μl/well) using an ECHO acoustic dispenser. Each compound was tested in a 10-point serial 3-fold dilution (typical final concentrations: 1050 nM-0.05 nM for 0% NHS condition or 42 μM-2.13 nM for 100% NHS condition). Controls included no inhibitor (DMSO only) and a combination of three antiviral agents (efavirenz, indinavir, an in-house integrase strand transfer inhibitor at final concentrations of 4 μM each). Cells were added ([…]) to compound plates and the infected cells were maintained at 37° C./5% CO2/90% relative humidity.
Infected cells were quantified at two time points, ˜48 h and ˜72 h post-infection, by counting the number of green cells in each well using an Acumen eX3 scanner. The increase in the number of green cells over ˜24 h period gives the reproductive ratio, R0, which is typically 5-15 and has been shown experimentally to be in logarithmic phase (data not shown). Inhibition of R0 is calculated for each well, and IC50s determined by non-linear 4-parameter curve fitting.

[1] = 0% NHS condition (RPMI 1640), read-out: WILD TYPE CELL ASSAY Viking IP (0% NHS)
[2] = 100% normal human serum condition, read-out: WILD TYPE CELL ASSAY Viking IP (100% NHS)
[3] = Human immunodeficiency virus 1, IIIB, 0% NHS condition (RPMI 1640), read-out: WILD TYPE CELL ASSAY Viking IP (0% NHS)

Compound | IC50 [1] | IC50 [2] | IC50 [3] | IC50 (Human immunodeficiency virus 1, IIIB, 100% normal human serum condition, read-out: WILD TYPE CELL ASSAY Viking IP (100% NHS))
CCN1CC2(CCOC(F)F)CC(O)c3c(C(=O)NCc4ccc(F)cc4F)c(=O)c(O)c(n32)C1=O (single isomer, unassigned) [Compound 1] | 7.6 nM | 237 nM | – | –
CCN1CC2(CCOC(F)F)CC(O)c3c(C(=O)NCc4ccc(F)cc4F)c(=O)c(O)c(n32)C1=O (single isomer, unassigned) [Compound 2] | 6.3 nM | 94.9 nM | – | –
CN1CC2(C)CC(O)c3c(C(=O)NCc4ccc(F)cc4)c(=O)c(O)c(n32)C1=O (single isomer, unassigned) [Compound 21] | – | 927 nM | 3.7 nM | –
CN1CC2(C)CC(O)c3c(C(=O)NCc4ccc(F)cc4)c(=O)c(O)c(n32)C1=O (single isomer, unassigned) [Compound 22] | 3 nM | 227 nM | – | –
CN1CC2(C)CC(O)c3c(C(=O)NCc4c(F)cc(F)cc4F)c(=O)c(O)c(n32)C1=O (single isomer, unassigned) [Compound 25] | – | 1700 nM | 1.4 nM | –
CN1CC2(C)CC(O)c3c(C(=O)NCc4c(F)cc(F)cc4F)c(=O)c(O)c(n32)C1=O (single isomer, unassigned) [Compound 26] | 2.1 nM | 107 nM | – | –
CN1CC2(C)CC(O)c3c(C(=O)NCc4c(F)ccc(Cl)c4F)c(=O)c(O)c(n32)C1=O (single isomer, unassigned) [Compound 29] | – | 3130 nM | 1.9 nM | –
CN1CC2(C)CC(O)c3c(C(=O)NCc4c(F)ccc(Cl)c4F)c(=O)c(O)c(n32)C1=O (single isomer, unassigned) [Compound 30] | 2.1 nM | 410 nM | – | –
CN1CC2(C)CC(O)c3c(C(=O)NCc4cccc(Cl)c4F)c(=O)c(O)c(n32)C1=O (single isomer, unassigned) [Compound 33] | – | 1200 nM | 3 nM | –
CN1CC2(C)CC(O)c3c(C(=O)NCc4cccc(Cl)c4F)c(=O)c(O)c(n32)C1=O (single isomer, unassigned) [Compound 34] | 2.1 nM | 178 nM | – | –
CCC12CC(O)c3c(C(=O)NCc4ccc(F)cc4F)c(=O)c(O)c(n31)C(=O)N(C)C2 (single isomer, unassigned) [Compound 37] | 2.2 nM | 547 nM | – | –
CCC12CC(O)c3c(C(=O)NCc4ccc(F)cc4F)c(=O)c(O)c(n31)C(=O)N(C)C2 (single isomer, unassigned) [Compound 38] | 1.2 nM | 32.5 nM | – | –
CCC12CC(O)c3c(C(=O)NCc4ccc(F)cc4F)c(=O)c(O)c(n31)C(=O)N(C)C2 (single isomer, unassigned) [Compound 39] | 2.1 nM | 322 nM | – | –
CCC12CC(O)c3c(C(=O)NCc4ccc(F)cc4F)c(=O)c(O)c(n31)C(=O)N(C)C2 (single isomer, unassigned) [Compound 40] | 1.9 nM | 39.1 nM | – | –
CCC12CC(O)c3c(C(=O)NCc4cccc(Cl)c4F)c(=O)c(O)c(n31)C(=O)N(C)C2 (single isomer, unassigned) [Compound 41] | 2.2 nM | 30.4 nM | – | –
CCC12CC(O)c3c(C(=O)NCc4cccc(Cl)c4F)c(=O)c(O)c(n31)C(=O)N(C)C2 (single isomer, unassigned) [Compound 42] | 2.8 nM | 59.3 nM | – | –
CCC12CC(O)c3c(C(=O)NCc4cccc(Cl)c4F)c(=O)c(O)c(n31)C(=O)N(C)C2 (single isomer, unassigned) [Compound 43] | 3.7 nM | 1270 nM | – | –
CCC12CC(O)c3c(C(=O)NCc4cccc(Cl)c4F)c(=O)c(O)c(n31)C(=O)N(C)C2 (single isomer, unassigned) [Compound 44] | 3.7 nM | 259 nM | – | –
CCC12CC(O)c3c(C(=O)NCc4c(F)cc(F)cc4F)c(=O)c(O)c(n31)C(=O)N(C)C2 (single isomer, unassigned) [Compound 45] | – | 17.9 nM | 1.1 nM | –
CCC12CC(O)c3c(C(=O)NCc4c(F)cc(F)cc4F)c(=O)c(O)c(n31)C(=O)N(C)C2 (single isomer, unassigned) [Compound 46] | 1.6 nM | 36.8 nM | – | –

Compound | IC50 [1] | IC50 [2] | IC50 [3] | IC50 (Human immunodeficiency virus 1, IIIB, 100% normal human serum condition, read-out: WILD TYPE CELL ASSAY Viking IP (100% NHS))
CCC12CC(O)c3c(C(=O)NCc4c(F)ccc(F)c4F)c(=O)c(O)c(n31)C(=O)N(C)C2 (single isomer, unassigned) [Compound 49] | – | 1020 nM | 2.6 nM | –
CCC12CC(O)c3c(C(=O)NCc4c(F)ccc(F)c4F)c(=O)c(O)c(n31)C(=O)N(C)C2 (single isomer, unassigned) [Compound 50] | 2.9 nM | 25.5 nM | – | –
CCC12CC(O)c3c(C(=O)NCc4c(F)ccc(Cl)c4F)c(=O)c(O)c(n31)C(=O)N(C)C2 (single isomer, unassigned) [Compound 53] | – | 4370 nM | 2.6 nM | –
CCC12CC(O)c3c(C(=O)NCc4c(F)ccc(Cl)c4F)c(=O)c(O)c(n31)C(=O)N(C)C2 (single isomer, unassigned) [Compound 54] | 2.8 nM | 29.5 nM | – | –
CCN1CC2(COC)CC(O)c3c(C(=O)NCc4ccc(F)cc4F)c(=O)c(O)c(n32)C1=O (single isomer, unassigned) [Compound 57] | 3.1 nM | 9970 nM | – | –
CCN1CC2(COC)CC(O)c3c(C(=O)NCc4ccc(F)cc4F)c(=O)c(O)c(n32)C1=O (single isomer, unassigned) [Compound 58] | 2.3 nM | 270 nM | – | –
CCN1CC2(COC)CC(O)c3c(C(=O)NCc4ccc(F)cc4F)c(=O)c(O)c(n32)C1=O (single isomer, unassigned) [Compound 59] | 3.2 nM | 106 nM | – | –
CCN1CC2(COC)CC(O)c3c(C(=O)NCc4ccc(F)cc4F)c(=O)c(O)c(n32)C1=O (single isomer, unassigned) [Compound 60] | 7.1 nM | 1260 nM | – | –
CCN1CC2(COC)CC(O)c3c(C(=O)NCc4c(F)cc(F)cc4F)c(=O)c(O)c(n32)C1=O (single isomer, unassigned) [Compound 61] | – | – | 2.3 nM | 95.9 nM
CCN1CC2(COC)CC(O)c3c(C(=O)NCc4c(F)cc(F)cc4F)c(=O)c(O)c(n32)C1=O (single isomer, unassigned) [Compound 62] | 2.4 nM | 60.5 nM | – | –
CC1N(C)C(=O)c2c(O)c(=O)c(C(=O)NCc3ccc(F)cc3F)c3n2C1(C)CC3O (single isomer, unassigned) [Compound 65] | 1.7 nM | 107 nM | – | –
CC1N(C)C(=O)c2c(O)c(=O)c(C(=O)NCc3ccc(F)cc3F)c3n2C1(C)CC3O (single isomer, unassigned) [Compound 66] | 1.4 nM | 32.3 nM | – | –
CC1N(C)C(=O)c2c(O)c(=O)c(C(=O)NCc3ccc(F)cc3F)c3n2C1(C)CC3O (single isomer, unassigned) [Compound 67] | 2.3 nM | 82.8 nM | – | –
CC1N(C)C(=O)c2c(O)c(=O)c(C(=O)NCc3ccc(F)cc3F)c3n2C1(C)CC3O (single isomer, unassigned) [Compound 68] | 2.4 nM | 45.5 nM | – | –
CC1N(C)C(=O)c2c(O)c(=O)c(C(=O)NCc3ccc(F)cc3F)c3n2C1(C)CC3O (single isomer, unassigned) [Compound 69] | 1.9 nM | 77.5 nM | – | –
CC1N(C)C(=O)c2c(O)c(=O)c(C(=O)NCc3ccc(F)cc3F)c3n2C1(C)CC3O (single isomer, unassigned) [Compound 70] | 1.2 nM | 26.3 nM | – | –
CC1N(C)C(=O)c2c(O)c(=O)c(C(=O)NCc3ccc(F)cc3F)c3n2C1(C)CC3O (single isomer, unassigned) [Compound 71] | 3.1 nM | 91.1 nM | – | –
CC1N(C)C(=O)c2c(O)c(=O)c(C(=O)NCc3ccc(F)cc3F)c3n2C1(C)CC3O (single isomer, unassigned) [Compound 72] | 1.3 nM | 15.8 nM | – | –
CC1C(O)c2c(C(=O)NCc3ccc(F)cc3F)c(=O)c(O)c3n2C1(C)CN(C)C3=O (single isomer, unassigned) [Compound 73] | 2.3 nM | 387 nM | – | –
